Read-outs that look alike come from different tables or passages of the source.
How the values were obtained:
[1] = Pharmacokinetics test in beagle dogs; type: in vivo; settings: for AUC(0-inf) / Cmax / Tmax / half-life / AUC(0-t): dog, plasma, po, capsule by gavage; for AUC(0-t): read-out: AUC0-24 h
Description: The pharmacokinetic properties of amorphous Compound (I) or the crystalline form A of Compound (I) disclosed herein are assessed in beagle dogs. The LC/MS/MS system used in the analysis consists of an Agilent 1200 Series vacuum degasser, binary pump, well-plate autosampler, thermostatted column compartment, the Agilent G6430 Triple Quadrupole Mass Spectrometer with an electrosprayionization (ESI) source. Quantitative analysis was carried out using MRM mode. The parameters for MRM transitions are in the Table A.
An Agilent XDB-C18, 2.1×30 mm, 3.5 μM column was used for the analysis. 5 μL of the samples were injected. Analysis condition: The mobile phase was 0.1% formic acid in water (A) and 0.1% formic acid in methanol (B). The flow rate was 0.4 mL/min. And the gradient of Mobile phase was in the Table B.
Alternatively, an Agilent 6330 series LC/MS/MS spectrometer equipped with G1312A binary pumps, a G1367A autosampler and a G1314C UV detector were used in the analysis. An ESI source was used on the LC/MS/MS spectrometer. The analysis was done in positive ion mode as appropriate and the MRM transition for each analyte was optimized using standard solution. A Capcell MP-C18 100×4.6 mm I.D., […] column (Phenomenex, Torrance, Calif., USA) was used during the analysis. The mobile phase was 5 mM ammonia acetate, 0.1% MeOH in water (A): 5 mM ammonia acetate, 0.1% MeOH in acetonitrile (B) (70/30, v/v). The flow rate was 0.6 mL/min. Column was maintained at ambient temperature. 20 μL of the samples were injected.
[…] The blood samples (0.3 mL) were drawn at 0.25, 0.5, 1.0, 2.0, 3.0, 4.0, 6.0, 8.0, 12 and 24 hour time points or 0.083, 0.25, 0.5, 1.0, 2.0, 4.0, 6.0, 8.0 and 24 hour time points and centrifuged at 3,000 or 4000 rpm for 2 to 10 min. The plasma solutions were collected, and analyzed by LC/MS/MS as described above. The pharmacokinetic parameters were calculated according to non-compartment model using WinNonlin procedure.

Hygroscopicity test = type: physicochemical; settings: p-toluenesulfonate; for Hygroscopicity (conclusion in words): from Table 6; for Hygroscopic capacity: 25±1° C.
Description: A glass weighing bottle equipped with a stopper was tarred and the weight was recorded as m1. Compound (I) in crystalline form A or amorphous form (about 1.0 g) was placed in the tared weighing bottle and capped with the stopper. The total weight was then recorded as m2. […] The weighing bottle capped with its stopper was weighed on day 5 and day 10 and the weight was recorded as m3.

[2] = Stability test (impurity contents by HPLC); type: physicochemical; settings: for The impurity contents: HPLC; for Increase of the impurity contents: illuminating the samples for 10 days
Description: A sample of crystalline form A of compound (I) (100˜200 mg) was placed on a watching glass in the form of a thin layer (thickness ≤5 mm). The samples were exposed to the following conditions: high temperature (60±2° C.) for 10 days; high humidity (25±2° C., 90%±5% relative humidity) for 10 days; illumination condition (visible light 4500 lx±500 lx with ultraviolet light not lower than 0.7 W·h/m^2, 25±2° C., 60%±5% relative humidity) for 10 days; and room temperature (30±2° C., 65%±5% relative humidity) for 10 days, respectively. The impurity contents in the samples were determined at different time points (0, 5 and 10 days) by high performance liquid chromatography (HPLC), and the absorption peaks were normalized relative to the highest peak (corresponds to compound I) which is set to 100%.

[3] = dose 9.7 mg/kg, grain size D90 32 μm
[4] = high humidity (25±2° C., 90%±5% relative humidity), 0 day, p-toluenesulfonate
[5] = high humidity (25±2° C., 90%±5% relative humidity), 5 days, p-toluenesulfonate
[6] = high humidity (25±2° C., 90%±5% relative humidity), 10 days, p-toluenesulfonate
[7] = high temperature (60±2° C.), 0 day, p-toluenesulfonate
[8] = high temperature (60±2° C.), 5 days, p-toluenesulfonate
[9] = high temperature (60±2° C.), 10 days, p-toluenesulfonate
[10] = illuminating condition (visible light 4500 lx±500 lx with UV, 25±2° C., 60%±5% RH), 0 day, p-toluenesulfonate
[11] = illuminating condition (visible light 4500 lx±500 lx with UV, 25±2° C., 60%±5% RH), 5 days, p-toluenesulfonate
[12] = illuminating condition (visible light 4500 lx±500 lx with UV, 25±2° C., 60%±5% RH), 10 days, p-toluenesulfonate
[13] = room temperature (30±2° C., 65%±5% relative humidity), 0 day, p-toluenesulfonate
[14] = dose 10 mg/kg, grain size D90 22 μm

Hygroscopic capacity (Hygroscopicity test; standing time 5 d) [%]	Hygroscopic capacity (Hygroscopicity test; standing time 10 d) [%]	The impurity contents [2, 4] [%]	The impurity contents [2, 5] [%]	The impurity contents [2, 6] [%]	The impurity contents [2, 7] [%]	The impurity contents [2, 8] [%]	The impurity contents [2, 9] [%]	The impurity contents [2, 10] [%]	The impurity contents [2, 11] [%]	The impurity contents [2, 12] [%]	The impurity contents [2, 13] [%]	SMILES	further results
7.74	8.48	0.14	0.11	0.07	0.14	0.13	0.10	0.14	0.36	0.56	0.14	Cc1c(C(=O)Nc2ccc(Oc3ccnc4cc(OCC(C)(C)O)ccc34)c(F)c2)c(=O)n(-c2ccccc2)n1C.Cc1ccc(S(=O)(=O)O)cc1 [Amorphous, N-(3-fluoro-4-((7-(2-hydroxy-2-methylpropoxy)quinolin-4-yl)oxy)phenyl)-1,5-dimethyl-3-oxo-2-phenyl-2,3-dihydro-1H-pyrazole-4-carboxamide p-toluenesulfonate]	AUC(0-inf) [1, 3]: 55300 ng·h/mL; Cmax [1, 3]: 2640 ng/mL; Tmax [1, 3]: 3.33 h; half-life [1, 3]: 15 h; AUC(0-t) [1, 3]: 37300 ng·h/mL; Hygroscopicity (conclusion in words) (Hygroscopicity test; listed as amorphous Compound (I)): hygroscopic; Increase of the impurity contents ([2]; listed as amorphous Compound (I), p-toluenesulfonate): 0.42%; The impurity contents ([2]; room temperature (30±2° C., 65%±5% relative humidity), 5 days): 0.07%; The impurity contents ([2]; room temperature (30±2° C., 65%±5% relative humidity), 10 days): 0.07%
0.03	0.12	0.35	0.37	0.39	0.35	0.37	0.37	0.35	0.38	0.48	0.35	Cc1c(C(=O)Nc2ccc(Oc3ccnc4cc(OCC(C)(C)O)ccc34)c(F)c2)c(=O)n(-c2ccccc2)n1C.Cc1ccc(S(=O)(=O)O)cc1 [Form A, N-(3-fluoro-4-((7-(2-hydroxy-2-methylpropoxy)quinolin-4-yl)oxy)phenyl)-1,5-dimethyl-3-oxo-2-phenyl-2,3-dihydro-1H-pyrazole-4-carboxamide p-toluenesulfonate]	Exposure and bioavailability in vivo (conclusion in words) ([1]; Cmax, AUC0-24h and AUC0-∞ compared with amorphous Compound (I)): good exposure and bioavailability; AUC(0-inf) [1, 14]: 180000 ng·h/mL; Cmax [1, 14]: 6190 ng/mL; Tmax [1, 14]: 4 h; half-life [1, 14]: 25 h; AUC(0-t) [1, 14]: 131000 ng·h/mL; Hygroscopicity (conclusion in words) (Hygroscopicity test; listed as crystalline form A of compound (I)): not hygroscopic; Increase of the impurity contents ([2]; listed as crystalline form A of Compound (I), p-toluenesulfonate): 0.13%

— US9920033B2, “Crystalline form of a substituted quinoline compound and pharmaceutical compositions thereof” (Sunshine Lake Pharma Co., Ltd., priority 2015, dated 2018)
